# In ChEMBL document CHEMBL1201862, “PubChem BioAssay data set” (2004):
# Where “and” joins values, the source holds several entries; their conditions need not be identical. Equal values may be shown once.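 Dose response: 5 concentrations. Exposure: 48 h. Format: 96-well plates. Endpoint: linear interpolation; highest concentration if not reached. Here, GI50 denotes the concentration required for 50% inhibition of growth.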 Calls of active or inactive are those of the source. No stated cut-off is given here; in the data, active = GI50 up to about 1.1 µM and inactive = higher.
# Columns and labels:
# Experiment in all cases: inhibition of tumour cell growth, NCI panel, 48 h
# OVCAR-5 = tested on: OVCAR-5
# SF-268 = tested on: SF-268
# SNB-75 = tested on: SNB-75
# A549 = tested on: A549
# RXF 393 = tested on: RXF 393
# HOP-62 = tested on: HOP-62
# KM12 = tested on: KM12
# SK-MEL-28 = tested on: SK-MEL-28
# SK-MEL-2 = tested on: SK-MEL-2
# OVCAR-8 = tested on: OVCAR-8
# M19-MEL = tested on: M19-MEL
# RPMI-8226 = tested on: RPMI-8226
# DMS-114 = tested on: DMS-114
# UO-31 = tested on: UO-31
# HT-29 = tested on: HT-29
# KM-20L2 = tested on: KM-20L2
# MCF7 = tested on: MCF7
# CCRF-CEM = tested on: CCRF-CEM
# SK-OV-3 = tested on: SK-OV-3
# ACHN = tested on: ACHN
Structure (SMILES),GI50 (OVCAR-5),GI50 (SF-268),GI50 (SNB-75),GI50 (A549),GI50 (RXF 393),GI50 (HOP-62),GI50 (KM12),GI50 (SK-MEL-28),GI50 (SK-MEL-2),GI50 (OVCAR-8),GI50 (M19-MEL),GI50 (RPMI-8226),GI50 (DMS-114),GI50 (UO-31),GI50 (HT-29),GI50 (KM-20L2),GI50 (MCF7),GI50 (CCRF-CEM),GI50 (SK-OV-3),GI50 (ACHN)
CCCCCCCCCCSCC(CO)NC(=O)/C=C/c1c(C)[nH]c(=O)[nH]c1=O (stereo not given),> 21.2 µM (inactive) and > 27.5 µM (inactive),684 nM (active) and 723 nM (active),1.39 µM (inactive) and 1.32 µM (inactive),32.8 µM (inactive) and > 50 µM (inactive),1.36 µM (inactive) and 2.69 µM (inactive),2.03 µM (inactive) and 3.24 µM (inactive),1.42 µM (inactive) and 2.05 µM (inactive),1.77 µM (inactive) and 1.85 µM (inactive),1.25 µM (inactive) and 804 nM (active),1.04 µM (active) and 1.09 µM (active),1.33 µM (inactive) and 1.06 µM (active),23.1 µM (inactive) and 33.5 µM (inactive),548 nM (active) and 637 nM (active),10.5 µM (inactive) and 6.84 µM (inactive),4.02 µM (inactive) and 7.43 µM (inactive),6.46 µM (inactive) and 3.37 µM (inactive),753 nM (active) and 1.17 µM (inactive),259 nM (active) and 258 nM (active),–,–
COc1cccc(N2C(=O)CSC2c2c[nH]c3ccccc23)c1 (stereo not given),> 100 µM (inactive),> 100 µM (inactive),> 100 µM (inactive),–,> 100 µM (inactive),> 100 µM (inactive),> 100 µM (inactive),> 100 µM (inactive),–,> 100 µM (inactive),–,–,–,> 100 µM (inactive),> 100 µM (inactive),–,> 100 µM (inactive),> 100 µM (inactive),> 100 µM (inactive),–
CCOC1=NC(C(F)(F)F)(C(F)(F)F)N=C(N2CCOCC2)O1,> 100 µM (inactive),> 100 µM (inactive),> 100 µM (inactive),> 100 µM (inactive),80.7 µM (inactive),–,> 100 µM (inactive),> 100 µM (inactive),> 100 µM (inactive),> 100 µM (inactive),–,> 100 µM (inactive),–,> 100 µM (inactive),> 100 µM (inactive),–,> 100 µM (inactive),> 100 µM (inactive),> 100 µM (inactive),> 100 µM (inactive)
CCOC(=O)c1ncoc1[C@H]1COC(C)(C)O1,> 100 µM (inactive),> 100 µM (inactive),> 100 µM (inactive),> 100 µM (inactive),> 100 µM (inactive),> 100 µM (inactive),–,–,> 100 µM (inactive),> 100 µM (inactive),> 100 µM (inactive),> 100 µM (inactive),> 100 µM (inactive),> 100 µM (inactive),> 100 µM (inactive),> 100 µM (inactive),–,> 100 µM (inactive),> 100 µM (inactive),> 100 µM (inactive)
Cc1ccc(NC(=O)CC/C(CC(=O)C(C)(C)C)=N/NC(=O)c2cc3ccccc3cc2O)cc1C,32.1 µM (inactive),33.3 µM (inactive),–,–,35.2 µM (inactive),36.8 µM (inactive),36.6 µM (inactive),80 µM (inactive),32.4 µM (inactive),26.8 µM (inactive),39.4 µM (inactive),–,31.6 µM (inactive),38.6 µM (inactive),41.7 µM (inactive),34.5 µM (inactive),–,16.2 µM (inactive),50 µM (inactive),31 µM (inactive)
